Test results reported in PubChem BioAssay AID1963872 (Molecular Pharmacology Branch, DTP, NCI, 2024).

Test system: KRAS patient-derived spheroids with HUVEC/MSC, viability
Test: Anticancer human tumor 519858-162-T-J1-PDC patient-derived colon adenocarcinoma cell line growth inhibition [KRAS2]
Conditions: for viability, T/C: stronger effect = lower value
Method in brief: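 Combination screen of spheroid viability in tumor-cell co-cultures with endothelial (HUVEC) and mesenchymal stem cell stroma. Each agent was tested in half-log dilutions, topping at clinical Cmax or at 10 microM without a known Cmax.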

[1] = curve of first compound, second compound 0.1 µM
[2] = curve of first compound, second compound 0.316 µM
[3] = curve of first compound, second compound 1 µM
[4] = curve of first compound, second compound 3.16 µM
[5] = curve of first compound, second compound 10 µM
[6] = second compound 0.1 µM, first compound 0.01 µM
[7] = second compound 0.1 µM, first compound 0.0316 µM
[8] = second compound 0.1 µM, first compound 0.1 µM
[9] = second compound 0.1 µM, first compound 0.316 µM
[10] = second compound 0.1 µM, first compound 1 µM
[11] = second compound 0.1 µM, first compound 3.16 µM
[12] = second compound 0.316 µM, first compound 0.01 µM
[13] = second compound 0.316 µM, first compound 0.0316 µM
[14] = second compound 0.316 µM, first compound 0.1 µM
[15] = second compound 0.316 µM, first compound 0.316 µM
[16] = second compound 0.316 µM, first compound 1 µM
[17] = second compound 0.316 µM, first compound 3.16 µM
[18] = second compound 1 µM, first compound 0.01 µM
[19] = second compound 1 µM, first compound 0.0316 µM
[20] = second compound 1 µM, first compound 0.1 µM
[21] = second compound 1 µM, first compound 0.316 µM
[22] = second compound 1 µM, first compound 1 µM
[23] = second compound 1 µM, first compound 3.16 µM
[24] = second compound 3.16 µM, first compound 0.01 µM
[25] = second compound 3.16 µM, first compound 0.0316 µM
[26] = second compound 3.16 µM, first compound 0.1 µM
[27] = second compound 3.16 µM, first compound 0.316 µM
[28] = second compound 3.16 µM, first compound 1 µM
[29] = second compound 3.16 µM, first compound 3.16 µM
[30] = second compound 10 µM, first compound 0.01 µM
[31] = second compound 10 µM, first compound 0.0316 µM
[32] = second compound 10 µM, first compound 0.1 µM
[33] = second compound 10 µM, first compound 0.316 µM
[34] = second compound 10 µM, first compound 1 µM
[35] = second compound 10 µM, first compound 3.16 µM
[36] = second compound 0.1 µM, first compound 0.000316 µM
[37] = second compound 0.1 µM, first compound 0.001 µM
[38] = second compound 0.1 µM, first compound 0.00316 µM
[39] = second compound 0.316 µM, first compound 0.000316 µM
[40] = second compound 0.316 µM, first compound 0.001 µM
[41] = second compound 0.316 µM, first compound 0.00316 µM
[42] = second compound 1 µM, first compound 0.000316 µM
[43] = second compound 1 µM, first compound 0.001 µM
[44] = second compound 1 µM, first compound 0.00316 µM
[45] = second compound 3.16 µM, first compound 0.000316 µM
[46] = second compound 3.16 µM, first compound 0.001 µM
[47] = second compound 3.16 µM, first compound 0.00316 µM
[48] = second compound 10 µM, first compound 0.000316 µM
[49] = second compound 10 µM, first compound 0.001 µM
[50] = second compound 10 µM, first compound 0.00316 µM
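Also: compound exposure lasted seven days before readout.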
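For viability, T/C in this document: 100% = DMSO vehicle control viability.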

Row | SMILES | IC50 [1] | IC50 [2] | IC50 [3] | IC50 [4] | IC50 [5] | viability, T/C [6] | viability, T/C [7] | viability, T/C [8] | viability, T/C [12] | viability, T/C [13] | viability, T/C [14] | viability, T/C [18] | viability, T/C [19] | viability, T/C [20] | viability, T/C [24] | viability, T/C [25] | viability, T/C [26] | viability, T/C [30] | viability, T/C [31] | viability, T/C [32] | also measured
1 | CC1COCCN1c1cc(-c2ccnn2C)c2ccnc(-c3ccn[nH]3)c2n1 (centres undefined) + CC1OCC2(CCN(c3cnc(Sc4ccnc(N)c4Cl)c(N)n3)CC2)C1N | 2.48 µM | 2.28 µM | 2.1 µM | > 3.16 µM | > 3.16 µM | 97.8% | 89.2% | 72.5% | 87% | 75.6% | 87.3% | 95.4% | 75.3% | 82.2% | 83.4% | 83.9% | 65.8% | 81.7% | 74.2% | 61.6% | viability, T/C [9]: 88.4%; viability, T/C [10]: 90.1%; viability, T/C [11]: 40%; viability, T/C [15]: 80.4%; viability, T/C [16]: 77.7%; viability, T/C [17]: 39.1%; viability, T/C [21]: 75.8%; viability, T/C [22]: 67.3%; viability, T/C [23]: 41.1%; viability, T/C [27]: 70.4%; viability, T/C [28]: 60.6%; viability, T/C [29]: 53.9%; viability, T/C [33]: 47.7%; viability, T/C [34]: 51%; viability, T/C [35]: 53.3%
2 | COC(=O)c1ccc2c(C(=Nc3ccc(N(C)C(=O)CN4CCN(C)CC4)cc3)c3ccccc3)c(O)[nH]c2c1 + C=CC(=O)N1CCN(c2nc(=O)n(-c3c(C)ccnc3C(C)C)c3nc(-c4c(O)cccc4F)c(F)cc23)C(C)C1 | > 10 µM | > 10 µM | > 10 µM | > 10 µM | > 10 µM | – | 121% | 86.2% | – | 106% | 83.8% | – | 89.4% | 67.9% | – | 96.9% | 75.1% | – | 72.9% | 74.3% | viability, T/C [9]: 85.9%; viability, T/C [10]: 101%; viability, T/C [11]: 102%; viability, T/C (second compound 0.1 µM, first compound 10 µM): 91.1%; viability, T/C [15]: 77.8%; viability, T/C [16]: 76.2%; viability, T/C [17]: 89.4%; viability, T/C (second compound 0.316 µM, first compound 10 µM): 94.1%; viability, T/C [21]: 111%; viability, T/C [22]: 90.7%; viability, T/C [23]: 76%; viability, T/C (second compound 1 µM, first compound 10 µM): 60.1%; viability, T/C [27]: 82.8%; viability, T/C [28]: 66.3%; viability, T/C [29]: 70.7%; viability, T/C (second compound 3.16 µM, first compound 10 µM): 84.2%; viability, T/C [33]: 60.1%; viability, T/C [34]: 80.4%; viability, T/C [35]: 101%; viability, T/C (second compound 10 µM, first compound 10 µM): 75.3%
3 | CC1COCCN1c1cc(-c2ccnn2C)c2ccnc(-c3ccn[nH]3)c2n1 (centres undefined) + CNCc1ccccc1-c1csc(C(C)Nc2nc(C)nc3cc(OC)c(OC)cc23)c1 | 1.76 µM | 1.04 µM | 1.43 µM | 0.568 µM | < 0.01 µM | 76.8% | 90.3% | 62.7% | 95% | 62.8% | 83.2% | 70.9% | 89.8% | 95% | 64.1% | 50.8% | 60% | 0.21% | 0.21% | 8.05% | viability, T/C [9]: 82.5%; viability, T/C [10]: 59.9%; viability, T/C [11]: 39.8%; viability, T/C [15]: 68.6%; viability, T/C [16]: 48.7%; viability, T/C [17]: 28.4%; viability, T/C [21]: 79.7%; viability, T/C [22]: 58.8%; viability, T/C [23]: 30.6%; viability, T/C [27]: 70.5%; viability, T/C [28]: 39%; viability, T/C [29]: 20.4%; viability, T/C [33]: 0.31%; viability, T/C [34]: 0.32%; viability, T/C [35]: 0.28%
4 | CC(C)n1nc(-c2ccc3oc(N)nc3c2)c2c(N)ncnc21 + CC1OCC2(CCN(c3cnc(Sc4ccnc(N)c4Cl)c(N)n3)CC2)C1N | > 0.1 µM | > 0.1 µM | > 0.1 µM | > 0.1 µM | > 0.1 µM | 89.7% | 86.2% | 77% | 60.8% | 71.3% | 65.5% | 102% | 89.7% | 80.7% | 93.9% | 91.8% | 92.9% | 105% | 112% | 100% | viability, T/C [36]: 92.4%; viability, T/C [37]: 90.3%; viability, T/C [38]: 100%; viability, T/C [39]: 104%; viability, T/C [40]: 85.6%; viability, T/C [41]: 88.6%; viability, T/C [42]: 86.5%; viability, T/C [43]: 84.9%; viability, T/C [44]: 78%; viability, T/C [45]: 60.2%; viability, T/C [46]: 91.6%; viability, T/C [47]: 90.1%; viability, T/C [48]: 76.8%; viability, T/C [49]: 85.7%; viability, T/C [50]: 89.2%
5 | CCN1CCN(Cc2ccc(Nc3ncc(F)c(-c4cc(F)c5nc(C)n(C(C)C)c5c4)n3)nc2)CC1 | – | – | – | – | – | – | – | – | – | – | – | – | – | – | – | – | – | – | – | – | viability, T/C (compound 0.00316 µM): 87.7% [middle of 5 runs]; viability, T/C (compound 0.01 µM): 82.6% [middle of 5 runs]; viability, T/C (compound 0.1 µM): 79.7% [middle of 5 runs]; viability, T/C (compound 0.316 µM): 72.4% [middle of 5 runs]; viability, T/C (compound 1 µM): 44.8% [middle of 5 runs]; IC50 (curve of compound): 879 nM [middle of 5 runs]
6 | CN(C)C/C=C/C(=O)Nc1cc2c(Nc3ccc(F)c(Cl)c3)ncnc2cc1O[C@H]1CCOC1 + CNCc1ccccc1-c1csc(C(C)Nc2nc(C)nc3cc(OC)c(OC)cc23)c1 | > 0.1 µM | > 0.1 µM | > 0.1 µM | 0.0105 µM | < 0.000316 µM | 63.4% | 84% | 77.8% | 59.4% | 69.5% | 54.6% | 51% | 89.2% | 68.9% | 43.5% | 61.6% | 37.3% | 0.36% | 0.8% | 0.42% | viability, T/C [36]: 118%; viability, T/C [37]: 89.8%; viability, T/C [38]: 70.9%; viability, T/C [39]: 81.1%; viability, T/C [40]: 74.8%; viability, T/C [41]: 70.2%; viability, T/C [42]: 64.8%; viability, T/C [43]: 59.2%; viability, T/C [44]: 55.2%; viability, T/C [45]: 60.6%; viability, T/C [46]: 61%; viability, T/C [47]: 47.7%; viability, T/C [48]: 0.31%; viability, T/C [49]: 0.87%; viability, T/C [50]: 0.47%
7 | CC(=O)Nc1cccc(-n2c(=O)n(C3CC3)c(=O)c3c(Nc4ccc(I)cc4F)n(C)c(=O)c(C)c32)c1 | – | – | – | – | – | – | – | – | – | – | – | – | – | – | – | – | – | – | – | – | viability, T/C (compound 0.0001 µM): 82.5% [middle of 5 runs]; viability, T/C (compound 0.01 µM): 35.6% [middle of 5 runs]; viability, T/C (compound 0.0316 µM): 20.8% [middle of 5 runs]
